Source: patent US20240336627A1, “NOVEL COMPOUNDS FOR THE DIAGNOSIS OF TDP-43 PROTEINOPATHIES” (AC IMMUNE SA, priority 2021, published 2024)
Marks after values point to notes of the source that are not given here.

Molecular target: T1, Human brain derived TDP-43 aggregates (Homo sapiens, UniProt Q13148)
T1 construct: A sample of brain tissue (frontal or temporal cortex) was homogenized; from tissue; host or cells: sarkosyl-insoluble fraction of human FTD brain (frontal or temporal cortex)
Assay: Micro-radiobinding competition assay on human FTD sarkosyl-insoluble brain extracts
Format: binding
Details: for Human brain derived TDP-43 aggregates Mean % competition at 250 nM: 250 nM test compound; for Human brain derived TDP-43 aggregates Mean % competition at 2 μM: 2 μM test compound; for Ki: 0.24 nM to 2 μM test compound
Procedure: Human brain extracts were prepared as described in Laferriere et al., 2019, Nature Neurosc. A sample of brain tissue (frontal or temporal cortex) was homogenized at 1:4 (w/v) ratio in the homogenization-solubilization (HS) buffer at 4° C. using tissue homogenizer (Precellys) with CKmix homogenization tubes. The following sequence was used for homogenization: 3 cycles of 30 seconds at 5000 rpm (with 15 seconds pause between each cycle). Homogenized samples were aliquoted and stored at −80° C. in 1.5 mL low protein binding tubes.
Brain homogenates were thawed on ice and resuspended in HS buffer to obtain a final concentration of 2% sarkosyl, 1 unit/μL Benzonase and 1 mM MgCl2. The samples were then incubated at 37° C. under constant shaking at 600 rpm on a thermomixer for 45 minutes (min). The supernatants were collected in a new tube (sarkosyl-soluble fraction, S1). The pellet was resuspended in 1000 μL of myelin floatation buffer and centrifuged at 20,000 g for 60 min at 4° C. The supernatant was carefully removed to remove all the floating lipids. This step was repeated if all the lipids could not be removed in a single step. The pellet was subsequently washed with Phosphate-Buffered Saline (PBS) and centrifuged for 30 min at 20,000 g at 4° C. The final pellet was resuspended in 200 μL PBS and stored at −80° C. (sarkosyl-insoluble fraction). The samples were analyzed by immunoblotting in denaturing conditions.
Human FTD sarkosyl-insoluble brain extracts were spotted onto microarray slides. The slides were incubated with [^3H]-Compound 52 or [^3H]-Compound 16 ligands at 75 nM or 40 nM, respectively, and the example compounds (non-radiolabelled) at 2 μM and 250 nM. In some cases, the non-radiolabelled example compounds were further assessed for a range of different concentrations, varying from 0.24 nM to 2 μM for determination of the inhibition constant (Ki). After incubation, slides were washed and scanned by a real-time autoradiography system (BeaQuant, ai4R). Quantification of the signal was performed by using the Beamage image analysis software (ai4R). Non-specific signal was determined with an excess of non-radiolabelled compound 52 or compound 16 (2 μM) and specific binding was calculated by subtracting the non-specific signal from the total signal. Competition was calculated as percent, where 0% was defined as the specific binding in the presence of vehicle and 100% as the values obtained in the presence of excess of the non-radiolabelled compound 52 or compound 16. Ki values were calculated in GraphPad Prism7 by applying a nonlinear regression curve fit using a one site, specific binding model. Measurements were performed with at least two technical replicates in the two-concentration competition experiment and with one technical replicate in the experiments including a range of concentrations. For compounds tested in more than one experiment, the mean of the replicates or Ki values in independent experiments is reported.

[1] = radioligand [3H]-Compound 52 (75 nM)
[2] = radioligand [3H]-Compound 16 (40 nM)

T1 sequence (Q13148 whole entry): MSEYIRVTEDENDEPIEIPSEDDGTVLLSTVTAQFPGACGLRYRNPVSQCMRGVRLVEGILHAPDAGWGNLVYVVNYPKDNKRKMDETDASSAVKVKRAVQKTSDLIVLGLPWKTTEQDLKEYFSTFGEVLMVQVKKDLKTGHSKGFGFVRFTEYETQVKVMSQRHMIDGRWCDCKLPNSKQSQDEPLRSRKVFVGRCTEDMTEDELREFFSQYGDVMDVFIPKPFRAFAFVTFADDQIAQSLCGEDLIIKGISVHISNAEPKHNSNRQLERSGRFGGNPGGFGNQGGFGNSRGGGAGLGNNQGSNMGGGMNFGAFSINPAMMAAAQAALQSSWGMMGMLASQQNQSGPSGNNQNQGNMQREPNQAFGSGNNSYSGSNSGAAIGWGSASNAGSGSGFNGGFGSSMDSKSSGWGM

| Structure (SMILES) | Human brain derived TDP-43 aggregates Mean % competition at 250 nM [1] | Human brain derived TDP-43 aggregates Mean % competition at 2 μM [1] | Ki [1] [nM] | Human brain derived TDP-43 aggregates Mean % competition at 250 nM [2] | Human brain derived TDP-43 aggregates Mean % competition at 2 μM [2] | Ki [2] [nM] |
| --- | --- | --- | --- | --- | --- | --- |
| Nc1cc(N2CCc3nc(-c4cnc(N5CC[C@H](F)C5)cn4)sc3C2=O)ccc1F [Example 37] | 54.3ª % | 74.9ª % | 79.9 |  |  |  |
| Nc1cc(N2CCc3nc(-c4ccc(N5CCCC5)cn4)sc3C2=O)ccc1F [Example 34] | 72.8ª % | 67.9ª % |  |  |  |  |
| Nc1cccc(N2CCc3nc(-c4cnc(N5CC[C@H](F)C5)nc4)sc3C2=O)c1F [Example 47] | 50.2ª % | 81.7ª % | 152 |  |  |  |
| N#Cc1c(N)cccc1N1CCc2nc(-c3ccc(N4CCCC4)nc3)sc2C1=O [Example 16, 2-amino-6-(4-oxo-2-(6-(pyrrolidin-1-yl)pyridin-3-yl)-6,7-dihydrothiazolo[5,4-c]pyridin-5(4H)-yl)benzonitrile] | 46.0ª % | 83.2ª % | 81 |  |  |  |
| N#Cc1cc(N2CCc3nc(-c4ccc(N5CCC[C@@H](F)C5)nc4)sc3C2=O)ccc1N [Example 29] | 42.6ª % | 73.9ª % | 27.7 |  |  |  |
| N#Cc1cc(N2CCc3nc(-c4ccc(N5CCC[C@H](F)C5)nc4)sc3C2=O)ccc1N [Example 32] | 44.0ª % | 80.9ª % |  |  |  |  |
| N#Cc1ccc(N2CCc3nc(-c4ccc(N5CCC[C@H](F)C5)nc4)sc3C2=O)cc1N [Example 31] | 67.6ª % | 79.7ª % | 101 |  |  |  |
| Cn1cc(N2CCc3nc(-c4ccc(N5CC[C@@H](F)C5)cc4)sc3C2=O)cn1 [Example 27] | 54.3ª % | 80.2ª % | 128 |  |  |  |
| Cn1cc(N2CCc3nc(-c4ccc(N5CC[C@@H](F)C5)nc4)sc3C2=O)cn1 [Example 1, (R)-2-(6-(3-fluoropyrrolidin-1-yl)pyridin-3-yl)-5-(1-methyl-1H-pyrazol-4-yl)-6,7-dihydrothiazolo[5,4-c]pyridin-4(5H)-one] |  |  | 18.7 |  |  |  |
| Nc1cc(N2CCc3nc(-c4cnc(N5CC[C@@H](F)C5)nc4)sc3C2=O)ccc1F [Example 46] | 62.5ª % | 85.9ª % | 93 |  |  |  |
| N#Cc1c(N)cccc1N1CCc2nc(-c3cnc(N4CCC(F)CC4)cn3)sc2C1=O [Example 39] |  |  |  | 64.5^c % | 77.4^c % | 148 |
| Nc1cc(N2CCc3nc(-c4cnc(N5CCC[C@H](F)C5)cn4)sc3C2=O)ccc1F [Example 36] | 51.0ª % |  |  |  |  |  |
| Nc1ccc(N2CCc3nc(-c4ccc(N5CCCC5)nc4)sc3C2=O)cc1F [Example 15] | 64.6ª % | 96.4ª % | 139 |  |  |  |
| N#Cc1ccc(N2CCc3nc(-c4ccc(N5CC[C@H](F)C5)nc4)sc3C2=O)cc1N [Example 22] | 64.2ª % | 80.3ª % |  |  |  |  |
| Nc1cccc(N2CCc3nc(-c4cnc(N5CC[C@@H](F)C5)cn4)sc3C2=O)c1F [Example 38] | 46.3ª % | 74.0ª % | 114 |  |  |  |
| Nc1ccc(N2CCc3nc(-c4cnc(N5CCCC5)nc4)sc3C2=O)cc1F [Example 43] | 45.0ª % | 69.4ª % |  |  |  |  |
| Nc1cccc(N2CCc3nc(-c4ccc(N5CC[C@@H](F)C5)nc4)sc3C2=O)c1F [Example 24] | 56.9ª % | 84.1ª % | 110 |  |  |  |
| Nc1cccc(N2CCc3nc(-c4ccc(N5CCCC5)nc4)sc3C2=O)c1F [Example 14] | 44.0ª % | 85.7ª % | 58.8 |  |  |  |
| Cn1cc(N2CCc3nc(-c4ccc(N5CC[C@H](F)C5)nc4)sc3C2=O)cn1 [Example 13] | 69.4ª % | 105.0ª % |  |  |  |  |
| N#Cc1cc(N2CCc3nc(-c4ccc(N5CC[C@@H](F)C5)nc4)sc3C2=O)ccc1N [Example 20] | 66.7ª % | 88.3ª % | 161 |  |  |  |
| N#Cc1ccc(N2CCc3nc(-c4ccc(N5CC[C@@H](F)C5)nc4)sc3C2=O)cc1N [Example 19] | 76.9ª % | 92.1ª % | 54.2 |  |  |  |
| Nc1cc(N2CCc3nc(-c4ccc(N5CCCC5)nc4)sc3C2=O)ccc1F [Example 3, 5-(3-amino-4-fluorophenyl)-2-(6-(pyrrolidin-1-yl)pyridin-3-yl)-6,7-dihydrothiazolo[5,4-c]pyridin-4(5H)-one] | 62.2ª % | 91.2ª % | 73.1 |  |  |  |
| Nc1cccc(N2CCc3nc(-c4cnc(N5CCC[C@@H](F)C5)nc4)sc3C2=O)c1F [Example 50] |  |  |  | 52.8^c % | 63.4^c % |  |
| Nc1cc(N2CCc3nc(-c4cnc(N5CC[C@@H](F)C5)cn4)sc3C2=O)ccc1F [Example 35] | 53.0ª % | 74.6ª % |  |  |  |  |
| Nc1cccc(N2CCc3nc(-c4cnc(N5CCC[C@H](F)C5)nc4)sc3C2=O)c1F [Example 48] | 46.9ª % | 77.9ª % | 73.6 |  |  |  |
| N#Cc1c(N)cccc1N1CCc2nc(-c3ccc(N4CC[C@H](F)C4)nc3)sc2C1=O [Example 21, (S)-2-amino-6-(2-(6-(3-fluoropyrrolidin-1-yl)pyridin-3-yl)-4-oxo-6,7-dihydrothiazolo[5,4-c]pyridin-5(4H)-yl)benzonitrile] | 22.7ª % | 40.1ª % |  |  |  |  |
| N#Cc1ccc(N2CCc3nc(-c4ccc(N5CCCC5)nc4)sc3C2=O)cc1N [Example 17] | 82.0ª % | 95.0ª % |  |  |  |  |
| Cn1cc(N2CCc3nc(-c4ccc(N5CCC[C@@H](F)C5)nc4)sc3C2=O)cn1 [Example 2, (R)-2-(6-(3-fluoropiperidin-1-yl)pyridin-3-yl)-5-(1-methyl-1H-pyrazol-4-yl)-6,7-dihydrothiazolo[5,4-c]pyridin-4(5H)-one] | 61.0ª % | 92.5ª % | 71.7 |  |  |  |
